The target in one assay is T1, RIPK1 (Homo sapiens, UniProt Q13546).
T1 construct: purchased Eurofins 16-022
T1 sequence (Q13546 1-671): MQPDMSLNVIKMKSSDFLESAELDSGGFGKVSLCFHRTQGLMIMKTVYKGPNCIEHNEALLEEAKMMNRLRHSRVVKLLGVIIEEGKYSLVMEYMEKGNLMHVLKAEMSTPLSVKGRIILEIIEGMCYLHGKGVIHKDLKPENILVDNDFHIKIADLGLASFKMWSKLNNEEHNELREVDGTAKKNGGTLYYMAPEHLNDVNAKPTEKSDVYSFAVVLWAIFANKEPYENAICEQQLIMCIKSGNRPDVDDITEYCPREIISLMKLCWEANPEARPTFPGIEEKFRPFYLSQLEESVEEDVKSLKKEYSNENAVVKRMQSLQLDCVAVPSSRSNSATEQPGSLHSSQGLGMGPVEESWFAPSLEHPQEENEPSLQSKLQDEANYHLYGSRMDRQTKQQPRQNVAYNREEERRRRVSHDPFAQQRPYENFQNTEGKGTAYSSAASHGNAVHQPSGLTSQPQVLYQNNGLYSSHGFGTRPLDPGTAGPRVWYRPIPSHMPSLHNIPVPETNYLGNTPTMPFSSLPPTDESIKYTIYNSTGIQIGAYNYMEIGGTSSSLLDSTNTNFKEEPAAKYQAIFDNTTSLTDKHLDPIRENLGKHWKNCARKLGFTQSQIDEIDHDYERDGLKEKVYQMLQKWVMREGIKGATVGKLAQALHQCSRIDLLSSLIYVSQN
Put plainly: Inhibitory activity against RIPK1 enzyme, P33-ATP / MBP substrate radiometric assay. The format is biochemical. Particulars: 36 nM RIPK1, 0.33 mg/mL MBP, 155 μM P33 ATP, 2 hours room temperature. As to the method: (§1) The U937 cell line used in the following test examples was derived from ATCC, No.: CRL-1593.2, batch No.: 63479999, culture medium: RPMI-1640+10% FBS. The L929 cell line used in the following test examples was derived from ATCC, No.: CCL-1, batch No.: 70001022, culture medium: MEM+10% FBS+1% PS. […]
The test compound was dissolved in DMSO to prepare a 10 mM stock solution, and diluted 3.16-fold with DMSO to a series of gradient concentrations. […] The final reaction system was detected using a liquid scintillation counter after treatment. The result after detection was subtracted from the blank control and converted to the percentage of activity compared with the reading of the control group. […]

The test system of another assay is U937 cells. Put plainly: Inhibition of TNF-α-induced programmed cell necrosis (necroptosis) in U937 cells, CellTiter-Glo. Type of assay: cell-based. Conditions: U-937, human TNF-α + Q-VD-Oph, 48 hours, read-out: inhibitory IC50 against programmed necroptosis of cells induced by TNF-α. An excerpt: The U937 cell line used in the following test examples was derived from ATCC, No.: CRL-1593.2, batch No.: 63479999, culture medium: RPMI-1640+10% FBS. The L929 cell line used in the following test examples was derived from ATCC, No.: CCL-1, batch No.: 70001022, culture medium: MEM+10% FBS+1% PS. The reagents used, their suppliers, and item numbers are as follows: RPMI-1640, Gibco, 11875-093; FBS, Gibco, 10099-141; Trypsin-EDTA, Gibco, 25200-072; PS, Gibco, 15140-122; CellTiter Glo, Promega, G7573; DMSO, VWR AMRESCO, 0231-500ML; TNF-α protein (human, recombinant), Peprotech, 300-01A; Q-VD-Oph, MCE, HY-12305; V-bottom plate, Corning, 3894; 384-well low flange white flat bottom microplate, Corning, 3570; RIPK1, Eurofins, 16-022; MOPS, BDH, 441644J; EDTA, Sigma, E5134; myelin basic protein, Sigma, M1891-25.00 MG; magnesium acetate, Merck, DU008026; ATP (non-radioactive labelled), Sigma, A-7699; ATP (radioactive labelled), Hartmann Analytic, DU008054; phosphoric acid, Metlab, DU003000; Z-VAD: Shanghai Twochem, YA02401.
The test compound was dissolved in DMSO and diluted to a series of concentration gradients with DMSO. […] After sufficient lysis reaction, the chemiluminescence readings were recorded by a microplate reader. The survival rate was calculated from the detection results using the equation as follows: SR (%)=(RLU compound−RLU blank)/(RLU high control−RLU blank)×100%. […]
For orientation: Cellular ATP, detected with luciferase, serves as a proxy for viable cell number.

For another assay, the system named is L929 cells. Description: Inhibition of TNF-α-induced programmed necrosis of L929 cells, CellTiter-Glo. The format is cell-based. Conditions: 30 ng/mL mouse TNF-α + 15 μM Z-VAD, 6 hours, read-out: inhibitory IC50 against programmed necroptosis of cells induced by TNF-α. As to the method:
as §1
The compound was dissolved in DMSO to prepare a 10 mM stock solution and diluted 3.16-fold with DMSO to a series of gradient concentrations. […] After sufficient lysis reaction, the chemiluminescence readings were recorded by a microplate reader. The survival rate was calculated from the detection results using the equation as follows: SR (%)=(RLU compound−RLU blank)/(RLU high control−RLU blank)×100%. […]

In patent publication US20240352040A1, “CRYSTAL FORM OF RIPK1 INHIBITOR, ACID SALT THEREOF, AND CRYSTAL FORM OF ACID SALT THEREOF” (GENFLEET THERAPEUTICS (SHANGHAI) INC., priority 2021, published 2024) one finds IC50 data, which are given here for one molecule.

By IC50 is commonly meant the midpoint of a concentration-inhibition curve.

Turning to `Nc1nc2cc(-c3cnc4c(c3)C(=O)N(Cc3cc(OC(F)(F)F)ccc3F)CC4)ccn2n1` [compound of formula I, 3-(2-amino-[1,2,4]triazolo[1,5-a]pyridin-7-yl)-6-(2-fluoro-5-(trifluoromethoxy)benzyl)-7,8-dihydro-1,6-naphthyridin-5(6H)-one], the results for the IC50 against RIPK1, with U937 cells and in the assay on L929 cells were 39 nM, 6 nM and 3 nM, respectively.
